Patent EP4667464A1 (Cyrus Therapeutics Inc., priority 2023, dated 2024)
Read-outs that look alike come from different tables or passages of the source.

Columns and labels:
[1] = target: T1, SOS1 (Homo sapiens, UniProt Q07889); assay: SOS-catalyzed nucleotide exchange assay (HTRF, SOS1-mediated GTP loading of KRAS G12D); type: biochemical
T1 construct: HIS-SOS1cat (160 nM; Cytoskeleton, US); His (N); purchased Cytoskeleton
T1 sequence (Q07889 564-1049 limits assumed): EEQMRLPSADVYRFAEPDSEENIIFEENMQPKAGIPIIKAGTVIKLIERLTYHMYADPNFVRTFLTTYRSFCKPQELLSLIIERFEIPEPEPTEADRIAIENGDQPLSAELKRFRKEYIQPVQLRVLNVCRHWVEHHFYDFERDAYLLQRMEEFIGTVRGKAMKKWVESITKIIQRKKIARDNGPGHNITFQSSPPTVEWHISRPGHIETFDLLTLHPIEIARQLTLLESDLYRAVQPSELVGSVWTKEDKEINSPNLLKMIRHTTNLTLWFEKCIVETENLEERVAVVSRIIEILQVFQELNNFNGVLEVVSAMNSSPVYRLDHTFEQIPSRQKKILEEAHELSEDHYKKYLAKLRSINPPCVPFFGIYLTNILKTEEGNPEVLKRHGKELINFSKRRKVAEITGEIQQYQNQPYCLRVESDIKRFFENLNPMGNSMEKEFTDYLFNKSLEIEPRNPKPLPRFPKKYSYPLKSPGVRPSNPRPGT
Protocol: SOS1 activity was measured by SOS1-mediated GTP loading quantification of KRAS^G12D. GTP loaded KRAS^G12D was detected by HTRF (Homogeneous Time Resolved Fluorescence) using anti-GST terbium (Cisbio, France) as a donor and a fluorescence GTP analogue (EDA-GTP-DY-647P1, [DY-647P1 labeled 2'/3'-O-(2-aminoethyl-carbamoyl)guanosine-5'-triphosphate (Jena bioscience, Germany)]) as an acceptor.
KRAS^G12D working solution was prepared by adding equal amounts of GST-KRAS^G12D (100 nM) and anti-GST-terbium (2 nM; Cisbio, France) to the assay buffer and culturing on ice for 10 minutes. […] Control solution was prepared by adding equal volumes of EDA-GTP-DY-647P1 and the assay buffer for normalization control to exclude GEF-independent GTP loading and background signals.
10 uL of the KRAS^G12D solution was added to each well and incubated for 30 minutes at room temperature while shaking. HTRF was measured using a Thermo Varioskan (excitation 334 nm, emission 665 nm). The IC50 of each inhibitor was analyzed using Graphad Prism.

[2] = target: T2, KRAS G12C::SOS1 (Homo sapiens, UniProt Q07889); assay: KRAS G12C::SOS1 protein-protein interaction (PPI) inhibition assay (HTRF); type: binding
T2 construct: purchased CISBIO 64KRASG12PEH
T2 sequence (Q07889 1-1333): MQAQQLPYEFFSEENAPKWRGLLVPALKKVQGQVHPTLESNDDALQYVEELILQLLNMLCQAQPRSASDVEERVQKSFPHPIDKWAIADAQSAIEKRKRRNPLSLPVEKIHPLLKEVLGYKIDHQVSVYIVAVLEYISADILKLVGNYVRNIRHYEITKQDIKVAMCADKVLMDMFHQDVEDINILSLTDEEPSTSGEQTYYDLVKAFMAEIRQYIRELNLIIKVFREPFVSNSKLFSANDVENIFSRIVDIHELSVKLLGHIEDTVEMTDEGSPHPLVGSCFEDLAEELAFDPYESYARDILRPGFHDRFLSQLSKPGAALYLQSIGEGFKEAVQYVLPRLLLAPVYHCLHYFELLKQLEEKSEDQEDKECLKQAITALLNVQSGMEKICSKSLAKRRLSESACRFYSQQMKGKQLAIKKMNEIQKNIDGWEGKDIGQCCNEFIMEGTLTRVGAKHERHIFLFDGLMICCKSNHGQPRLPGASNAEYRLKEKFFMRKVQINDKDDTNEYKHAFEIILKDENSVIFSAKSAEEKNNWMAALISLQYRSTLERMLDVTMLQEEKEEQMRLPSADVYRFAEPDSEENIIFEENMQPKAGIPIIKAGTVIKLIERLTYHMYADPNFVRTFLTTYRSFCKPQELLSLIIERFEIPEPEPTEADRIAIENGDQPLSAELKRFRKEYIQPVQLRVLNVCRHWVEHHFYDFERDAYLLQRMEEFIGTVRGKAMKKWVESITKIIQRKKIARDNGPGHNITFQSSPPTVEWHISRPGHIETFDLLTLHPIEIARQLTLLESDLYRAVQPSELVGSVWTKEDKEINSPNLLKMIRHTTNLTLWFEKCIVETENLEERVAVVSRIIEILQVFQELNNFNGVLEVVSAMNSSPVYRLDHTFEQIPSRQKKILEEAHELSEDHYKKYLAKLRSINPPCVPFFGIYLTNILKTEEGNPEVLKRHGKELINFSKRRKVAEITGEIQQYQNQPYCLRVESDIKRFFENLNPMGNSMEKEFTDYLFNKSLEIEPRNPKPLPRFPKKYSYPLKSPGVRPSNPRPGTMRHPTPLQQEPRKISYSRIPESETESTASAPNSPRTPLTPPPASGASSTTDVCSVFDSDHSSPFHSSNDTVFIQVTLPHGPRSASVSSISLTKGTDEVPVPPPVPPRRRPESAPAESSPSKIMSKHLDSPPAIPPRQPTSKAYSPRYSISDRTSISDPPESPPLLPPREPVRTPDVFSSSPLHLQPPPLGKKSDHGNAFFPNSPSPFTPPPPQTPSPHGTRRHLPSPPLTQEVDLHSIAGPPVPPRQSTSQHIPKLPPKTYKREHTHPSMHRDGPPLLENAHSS
Protocol: Protein-protein interaction between SOS1 and KRAS^G12c was detected using KRAS G12C/SOS1 binding kit from CISBIO (64KRASG12PEH, CISBIO, FRANCE) according to the manufacturer's assay method. Briefly, the maximum concentration of an inhibitor sample was set to be 3 µM, and the inhibitor sample was diluted 7 times by 1/3, and samples having a total of 8 concentrations were prepared. In HTRF (Homogeneous Time-Resolved Fluorescence) exclusive 96-well low-volume white plate (66PL96005, CISBIO, FRANCE), 2 µL of an inhibitor sample prepared for each concentration, 5 µL of a mixed solution of Tag1 labeled KRAS^G12c protein and GTP diluted with the dilution solution provided by the manufacturer, and 5 µL of Tag2 labeled SOS1 protein were mixed, and added with 8 µL of a diluted solution where anti-Tag1 KRAS^G12C XL665 (HTRF acceptor) labeled antibody and anti-Tag2 SOS1 Terbium cryptate (HTRF donor) labeled antibody were mixed in an equal ratio and cultured at room temperature for 2 h.

[3] = GST-KRAS G12D, HIS-SOS1cat, compound 128 pM to 10 µM, read-out: SOS-catalyzed nucleotide exchange assay
[4] = 8 concentrations from 3 µM, three replicates, read-out: KRAS G12C::SOS1 PPI

Row | Structure (SMILES) | IC50 [1, 3] | IC50 [2, 4] | IC50 [1] | IC50 [2]
1 | C[C@@H](O)c1cc(C(=O)N[C@H](C)c2cccc(C(F)(F)F)c2F)nn(-c2cncc(-c3cnnn3C)c2)c1=O (single isomer, unassigned) [Example 9] | < 50 nM | 50 to 150 nM |  | 
2 | C[C@@H](NC(=O)c1cc(C#N)c(=O)n(-c2cncc(-c3cnnn3C)c2)n1)c1cccc(C(F)(F)CO)c1F [Example 3, 5-cyano-N-[(1R)-1-[3-(1,1-difluoro-2-hydroxy-ethyl)-2-fluorophenyl]ethyl]-1-[5-(3-methyltriazol-4-yl)-3-pyridyl]-6-oxo-pyridazine-3-carboxamide] |  |  | > 150 nM | > 150 nM
3 | [2H]c1cc(C(=O)N[C@H](C)c2cccc(C(F)(F)F)c2F)nn(-c2cncc(-c3cnnn3C)c2)c1=O [Example 1-38, N-{(R)-1-[2-fluoro-3-(trifluoromethyl)phenyl]ethyl}-1-[5-(1-methyl-1H-1,2,3-triazol-5-yl)-3-pyridyl]-6-oxo-1,6-dihydropyridazine-5-deuterio-3-carboxamide] | 50 to 150 nM | < 50 nM |  | 
4 | [2H]C([2H])([2H])[C@@H](NC(=O)c1ccc(=O)n(-c2cncc(-c3cnnn3C([2H])([2H])[2H])c2)n1)c1cccc(C(F)(F)F)c1F [Example 1-36, N-{(R)-1-[2-fluoro-3-(trifluoromethyl)phenyl]-ethyl-(2,2,2-trideuterio)}-1-(5-{1-[trideuteriomethyl]-1H-1,2,3-triazol-5-yl}-3-pyridyl)-6-oxo-1,6-dihydropyridazine-3-carboxamide] | < 50 nM | 50 to 150 nM |  | 
5 | C[C@@H](NC(=O)c1ccc(=O)n(-c2cncc(-c3cnnn3[C@H]3CC3(F)F)c2)n1)c1cccc(C(F)(F)CO)c1F (single isomer, unassigned) [Example 25] |  |  | < 50 nM | < 50 nM
6 | C[C@@H](NC(=O)c1ccc(=O)n(-c2cncc(-c3c(Cl)nnn3C)c2)n1)c1cccc(C(F)F)c1F [Example 13, N-{(R)-1-[3-(difluoromethyl)-2-fluorophenyl]ethyl}-1-[5-(4-chloro-1-methyl-1H-1,2,3-triazol-5-yl)-3-pyridyl]-6-oxo-1,6-dihydropyridazine-3-carboxamide] | 50 to 150 nM | > 150 nM |  | 
7 | CCn1nccc1-c1cncc(-n2nc(C(=O)N[C@H](C)c3cccc(C(F)(F)CO)c3F)ccc2=O)c1 [Example 1-14, N-[(1R)-1-[3-(1,1-difluoro-2-hydroxy-ethyl)-2-fluoro-phenyl]ethyl]-1-[5-(2-ethylpyrazol-3-yl)-3-pyridyl]-6-oxo-pyridazine-3-carboxamide] | > 150 nM | > 150 nM |  | 

More lines, main results first:

Row | IC50 [1, 3] | IC50 [2, 4] | Structure (SMILES) | IC50 [1] | IC50 [2]
8 | < 50 nM | < 50 nM | C[C@@H](NC(=O)c1ccc(=O)n(-c2cncc(-c3cnnn3C3CN(S(C)(=O)=O)C3)c2)n1)c1cccc(C(F)(F)F)c1F [Example 20-12, (R)-N-(1-(2-fluoro-3-(trifluoromethyl)phenyl)ethyl)-1-(5-(1-(1-(methylsulfonyl)azetidin-3-yl)-1H-1,2,3-triazol-5-yl)pyridin-3-yl)-6-oxo-1,6-dihydropyridazine-3-carboxamide] |  | 
9 | < 50 nM | < 50 nM | C[C@@H](NC(=O)c1cc(C#N)c(=O)n(-c2cc(-c3cnnn3C)cnc2F)n1)c1cccc(C(F)(F)CO)c1F [Example 3-3] |  | 
10 | < 50 nM | < 50 nM | C[C@@H](NC(=O)c1ccc(=O)n(-c2cncc(-c3cnnn3C3CCN(C)CC3)c2)n1)c1cccc(C(F)(F)F)c1F [Example 20-6, (R)-N-(1-(2-fluoro-3-(trifluoromethyl)phenyl)ethyl)-1-(5-(1-(1-methylpiperidin-4-yl)-1H-1,2,3-triazol-5-yl)pyridin-3-yl)-6-oxo-1,6-dihydropyridazine-3-carboxamide] |  | 
11 | < 50 nM | < 50 nM | CCN1CC(n2nncc2-c2cncc(-n3nc(C(=O)N[C@H](C)c4cccc(C(F)(F)F)c4F)ccc3=O)c2)C1 [Example 20-9, (R)-1-(5-(1-(1-ethylazetidin-3-yl)-1H-1,2,3-triazol-5-yl)pyridin-3-yl)-N-(1-(2-fluoro-3-(trifluoromethyl)phenyl)ethyl)-6-oxo-1,6-dihydropyridazine-3-carboxamide] |  | 
